The target of one series is T1, human GLP-1 receptor (Homo sapiens, UniProt P43220).
T1 construct: expressed in transfected cells; host or cells: Chinese guinea pig lung cells [sic]
The series is described as follows: GLP-1 receptor mediated cAMP production in vitro. In kind it is cell-based. The conditions noted are these: cells transfected with human GLP-1 receptor, 20 min at 37° C., read-out: GLP-1R (nM EC50). The source says:
(§1) The medium was removed, the cells were lysed, and cAMP values were detected referring to the detection method described for the assay kit.
Background: Cyclic AMP is a second messenger, typically raised through Gs and lowered through Gi signalling.

In a further series the target is T2, GC receptor (Homo sapiens, UniProt P47871).
T2 construct: expressed in transfected cells; host or cells: HEK293 cells
The series is described as follows: GC receptor mediated cAMP production in vitro (HEK293 cells transfected with GC receptor). In kind it is cell-based. The conditions noted are these: 20 min at 37° C., read-out: GCGR (nM EC50).
Source text: as §1

Series [1] is described as follows: Effect on body weight of DIO mice after 14 days' administration. In kind it is in vivo, C57BL/6J mice. The note with it: DIO mice, subcutaneous injection every day for 14 days; (initial−last)/initial; positive values indicate a decrease. The source says: C57BL/6J mice (n=35), model group (n=30) were fed with H10060 high-fat diet to induce obesity (DIO), blank control group (n=5) were fed with standard diet, both for 34 weeks. One day before the first administration, the model group was randomly divided into groups according to their body weight (average body weight range 45.0-52.0 g), with 5 mice in each group, which respectively were model control group, positive control group (semaglutide), and test sample group (1 #-4 # are compound 1, compound 4, compound 6 and compound 22, respectively). The blank control group and model control group were given saline subcutaneously every day, while the positive control group and test sample group were administrated by subcutaneous injection every day for 14 days. The body weight of the animals was weighed and recorded every day, and the change rate of body weight (%) was calculated by comparing the body weight at the last administration day with the initial body weight. (initial body weight−last body weight)/initial body weight=body weight change rate (%). Calculation formula: […]
Calculated positive values indicate a decrease and negative values indicate an increase.
(§2) Methods are the same as that in Example 3, the test results of effects on body weight are shown in Table 5, and the effects on blood glucose are shown in Table 6. In the table, 5 #-9 # are compound 27, compound 35, compound 54, compound 57, and compound 66, respectively.

The nature of series [2]: Glucose tolerance test in glucose-loaded DIO mice. The conditions noted are these: for AUC of blood glucose, Table 4: DIO mice fasted 16 h, glucose 1 g/kg i.p. 1 h after s.c. administration, 0.5, 1, 1.5 h; for AUC reduction rate (%), Table 4: blood glucose inhibition rate compared with model control group, DIO mice, glucose 1 g/kg i.p. In kind it is in vivo. The method, then:
DIO mice fasted for 16 h, and 1 h after administration by subcutaneous injection, glucose solution (1 g/kg) was given intraperitoneally for glucose tolerance test. Blood glucose values were measured at 0.5, 1 and 1.5 h after glucose administration. The area under the blood glucose concentration curve (AUC) was calculated and compared with that of the model control group, and the blood glucose inhibition rate (%) was calculated.
as §2

A short description of another series: physchem. In kind it is physicochemical.
A short description of series [3]: Short-term administration: food intake and body weight in DIO mice. The conditions noted are these: 30 nmol/kg once every 24 h, twice, − decrease; for Rate of change in food intake (%): at 48 hours vs day before administration; for Body weight change: at 48 hours. The series is classed as in vivo. Put shortly: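 DIO mice (mean body weight 52.5 g), 5 per group, dosed at 30 nmol/kg every 24 h for two doses, in 10 mM PBS pH 7.4; controls received solvent. Food intake and body weight at 48 h expressed as change rate versus the day before dosing.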

Series [4] can be described thus: Accelerated chemical stability in injection solvent system (HPLC-UV). The series is classed as physicochemical. The note with it: 14 days, phosphate buffer pH 7.3 with Tween 80 and phenol, main peak area vs day 0. Put shortly:
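Compound dissolved in 10 mM pH 8.5 sodium hydrogen phosphate buffer, adjusted to pH 7.3, with Tween 80 and phenol added. Solutions stored 14 days at 10 °C and 37 °C; HPLC-UV main-peak area by normalisation compared against day 0.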

Setting [5] is: pH 7.5, Solubility, pH 7.5, 10 mM phosphate buffer.
Setting [6] is: pH 7.5, Solubility, pH 7.5, 20 mM phosphate buffer.

≈ marks a conversion by molar mass, not a printed value. Marks after values point to notes of the source that are not given here. Numbered stars: 1 amine (or outer) side, 2 acyl side, 3 side chain; on linkers, the order of the positions; unused ones are H or OH. Square brackets hold non-standard residues; d marks the D form. Side chains are listed from the residue outwards. Peptide text beside a SMILES is read from it. * marks the point of attachment. C20 diacid = O=C(O)CCCCCCCCCCCCCCCCCCC(=O)*; C18 diacid = O=C(O)CCCCCCCCCCCCCCCCC(=O)*; γGlu = O=C(O)[C@H](CCC(=O)[*:2])N[*:1]; AEEA = NCCOCCOCC(=O)O; Aib = CC(C)(N)C(=O)O Bounds are passed on as bounds.

The text below walks through data of patent publication US12257287B2, “Glucagon-derived peptide and use thereof” (Tianjin Institute of Pharmaceutical Research Co., Ltd., priority 2018, dated 2025).

In general, EC50 refers to the concentration giving half of the maximal effect. By solubility is commonly meant the dissolved amount per volume that the medium holds. A lower solubility goes with little dissolved substance.
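Wherever Solubility is given: compound added at 2 mg per mL of phosphate buffer, with the dissolved amount determined in the supernatant.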
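Wherever Solubility, pH 7.5, 20 mM phosphate buffer is given: compound added at 2 mg per mL of phosphate buffer, with the dissolved amount determined in the supernatant.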

T1 sequence (P43220 24-463): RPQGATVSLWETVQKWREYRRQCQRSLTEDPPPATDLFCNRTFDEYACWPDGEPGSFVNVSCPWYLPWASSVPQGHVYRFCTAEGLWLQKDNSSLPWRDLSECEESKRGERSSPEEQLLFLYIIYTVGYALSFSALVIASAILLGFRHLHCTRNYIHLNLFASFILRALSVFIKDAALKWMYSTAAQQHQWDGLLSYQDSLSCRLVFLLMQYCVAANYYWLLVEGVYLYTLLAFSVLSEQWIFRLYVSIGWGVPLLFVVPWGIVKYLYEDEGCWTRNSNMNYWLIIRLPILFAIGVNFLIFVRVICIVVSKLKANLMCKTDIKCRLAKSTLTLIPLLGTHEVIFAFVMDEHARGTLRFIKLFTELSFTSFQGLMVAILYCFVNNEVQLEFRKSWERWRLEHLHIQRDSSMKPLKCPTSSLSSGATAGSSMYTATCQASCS
T2 sequence (P47871 26-477): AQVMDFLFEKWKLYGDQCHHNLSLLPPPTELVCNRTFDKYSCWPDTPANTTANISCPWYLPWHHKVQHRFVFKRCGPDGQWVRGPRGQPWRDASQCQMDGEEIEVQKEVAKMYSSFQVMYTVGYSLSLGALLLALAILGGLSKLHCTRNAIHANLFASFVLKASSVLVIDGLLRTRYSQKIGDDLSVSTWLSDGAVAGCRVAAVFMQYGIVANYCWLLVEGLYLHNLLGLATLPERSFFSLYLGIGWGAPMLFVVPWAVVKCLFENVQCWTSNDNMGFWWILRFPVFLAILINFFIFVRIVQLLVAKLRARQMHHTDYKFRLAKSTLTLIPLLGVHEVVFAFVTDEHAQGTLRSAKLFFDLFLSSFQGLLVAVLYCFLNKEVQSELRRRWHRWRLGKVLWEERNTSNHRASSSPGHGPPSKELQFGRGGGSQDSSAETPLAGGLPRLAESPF
Method for physchem: 2 mg of the compound was weighed, dissolved in 1 ml of phosphate buffer solutions with different concentrations (10, 20 mM) and different pH values (7.5, 8.0), and centrifuged, and supernatant was taken. The peak area was measured by HPLC (chromatographic column: Aeris widepore XB-C18 3.6 mm, 4.6×150 mm; mobile phase: A: 0.05% TFA, B: 95% acetonitrile; detection wavelength: 214 nm) and compared with a corresponding sample standard solution, and the relative concentration of the test sample solution is calculated.

`CCCCCCCCCCCCCCCC(=O)N[C@@H](CCC(=O)N[C@@H](CCC(=O)NCCCC[C@H](NC(=O)[C@H](CC(=O)O)NC(=O)[C@H](CO)NC(=O)[C@@H](NC(=O)[C@H](Cc1ccccc1)NC(=O)[C@@H](NC(=O)CNC(=O)[C@H](CCC(N)=O)NC(=O)C(C)(C)NC(=O)[C@@H](N)Cc1c[nH]cn1)[C@@H](C)O)[C@@H](C)O)C(=O)N[C@@H](CO)C(=O)N[C@@H](CCCCN)C(=O)N[C@@H](Cc1ccc(O)cc1)C(=O)N[C@@H](CC(C)C)C(=O)N[C@@H](CCC(=O)O)C(=O)N[C@@H](CCC(=O)O)C(=O)N[C@@H](CCCNC(=N)N)C(=O)N[C@@H](C)C(=O)N[C@@H](C)C(=O)N[C@@H](CCCCN)C(=O)N[C@@H](CCC(=O)O)C(=O)N[C@@H](Cc1ccccc1)C(=O)N[C@H](C(=O)N[C@@H](CCC(=O)O)C(=O)N[C@@H](Cc1c[nH]c2ccccc12)C(=O)N[C@@H](CC(C)C)C(=O)N[C@@H](CCC(=O)O)C(=O)N[C@@H](C)C(=O)NCC(=O)NCC(=O)N1CCC[C@H]1C(=O)N[C@@H](CO)C(=O)N[C@@H](CO)C(=O)NCC(N)=O)C(C)C)C(=O)O)C(=O)O` [Compound 2] (HELM PEPTIDE1{H.[Aib].Q.G.T.F.T.S.D.K.S.K.Y.L.E.E.R.A.A.K.E.F.V.E.W.L.E.A.G.G.P.S.S.G.[am]}|PEPTIDE2{[CCCCCCCCCCCCCCCC(=O)[*:2]].[gGlu].[gGlu]}$PEPTIDE1,PEPTIDE2,10:R3-3:R2$$$V2.0; N-terminus assumed): the half-maximal effective concentration (EC50) at human GLP-1 receptor is 0.219 nM; on GC receptor, 0.0352 nM. Moreover, the “body weight change rate, Table 3” value in series [1] is 22.0%. Besides, the “AUC of blood glucose, Table 4” value in series [2] came out at 8.06 ± 2.06 mmol·h/L. Besides, in series [2], the “AUC reduction rate (%), Table 4” value was 61.9** %. In addition, the solubility in the series “physchem” (setting [5]) and in “physchem” (setting [6]) was above 2000 µg/mL in each case.
`CCCCCCCCCCCCCCCC(=O)N[C@@H](CCC(=O)N[C@@H](CCC(=O)NCCCC[C@H](NC(=O)[C@H](CC(=O)O)NC(=O)[C@H](CO)NC(=O)[C@@H](NC(=O)[C@H](Cc1ccccc1)NC(=O)[C@@H](NC(=O)CNC(=O)[C@H](CCC(N)=O)NC(=O)C(C)(C)NC(=O)[C@@H](N)Cc1c[nH]cn1)[C@@H](C)O)[C@@H](C)O)C(=O)N[C@@H](CO)C(=O)N[C@@H](CCCCN)C(=O)N[C@@H](Cc1ccc(O)cc1)C(=O)N[C@@H](CC(C)C)C(=O)N[C@@H](CCC(=O)O)C(=O)N[C@@H](CCC(=O)O)C(=O)N[C@@H](CCCNC(=N)N)C(=O)N[C@@H](C)C(=O)N[C@@H](C)C(=O)N[C@@H](CCCCN)C(=O)N[C@@H](CCC(=O)O)C(=O)N[C@@H](Cc1ccccc1)C(=O)N[C@H](C(=O)N[C@@H](C)C(=O)N[C@@H](Cc1c[nH]c2ccccc12)C(=O)N[C@@H](CC(C)C)C(=O)N[C@@H](CCCCN)C(=O)N[C@@H](CCC(=O)O)C(=O)NCC(=O)NCC(=O)N1CCC[C@H]1C(=O)N[C@@H](CO)C(=O)N[C@@H](CO)C(=O)NCC(N)=O)C(C)C)C(=O)O)C(=O)O` [Compound 3] (HELM PEPTIDE1{H.[Aib].Q.G.T.F.T.S.D.K.S.K.Y.L.E.E.R.A.A.K.E.F.V.A.W.L.K.E.G.G.P.S.S.G.[am]}|PEPTIDE2{[CCCCCCCCCCCCCCCC(=O)[*:2]].[gGlu].[gGlu]}$PEPTIDE1,PEPTIDE2,10:R3-3:R2$$$V2.0; N-terminus assumed): the EC50 at human GLP-1 receptor came out at 20.7 nM; on GC receptor, 0.1 nM. The “body weight change rate, Table 3” value in series [1] is on record as 22.0%. Also, the “AUC of blood glucose, Table 4” value in series [2] turned out to be 8.66 ± 2.14 mmol·h/L. For the same molecule, in series [2], the “AUC reduction rate (%), Table 4” value is given as 59.1** %. For the same molecule, the “Solubility, pH 7.5, 20 mM phosphate buffer” value in the series “physchem” (pH 7.5) is “Insoluble”. Also, the solubility in the series “physchem” (setting [5]) turned out to be 60 µg/mL (≈ 14.2 µM); in “physchem” (pH 8, Solubility, pH 8.0, 10 mM phosphate buffer) it was 170 µg/mL (≈ 40.3 µM); in the series “physchem” (pH 8, Solubility, pH 8.0, 20 mM phosphate buffer) it was 90 µg/mL (≈ 21.3 µM).
As to `CC[C@H](C)[C@H](NC(=O)[C@H](Cc1ccccc1)NC(=O)[C@H](CCC(=O)O)NC(=O)[C@H](CCCCN)NC(=O)[C@H](C)NC(=O)[C@H](C)NC(=O)[C@H](CCCNC(=N)N)NC(=O)[C@H](CCC(=O)O)NC(=O)[C@H](CC(=O)O)NC(=O)[C@H](CC(C)C)NC(=O)[C@H](Cc1ccc(O)cc1)NC(=O)[C@H](CCCCN)NC(=O)[C@H](CO)NC(=O)[C@H](CCCCNC(=O)COCCOCCNC(=O)COCCOCCNC(=O)CC[C@H](NC(=O)CCCCCCCCCCCCCCCCC(=O)O)C(=O)O)NC(=O)[C@H](CC(=O)O)NC(=O)[C@H](CO)NC(=O)[C@@H](NC(=O)[C@H](Cc1ccccc1)NC(=O)[C@@H](NC(=O)CNC(=O)[C@H](CCC(N)=O)NC(=O)C(C)(C)NC(=O)[C@@H](N)Cc1c[nH]cn1)[C@@H](C)O)[C@@H](C)O)C(=O)N[C@@H](C)C(=O)N[C@@H](Cc1c[nH]c2ccccc12)C(=O)N[C@@H](CC(C)C)C(=O)N[C@@H](CCC(=O)O)C(=O)NCC(=O)NCC(=O)N1CCC[C@H]1C(=O)N[C@@H](CO)C(=O)N[C@@H](CO)C(=O)NCC(N)=O` [Compound 75] (H-H[Aib]QGTFTSDK([AEEA-AEEA-γGlu-C18 diacid])SKYLDERAAKEFIAWLEGGPSSG-NH2; N-terminus assumed), the EC50 on human GLP-1 receptor stood at 0.141 nM; at GC receptor, 0.087 nM. Moreover, the “Rate of change in food intake (%)” value in series [3] was −60%. Moreover, in series [3], the “Body weight change” value was -2.4 g. Further, the solubility in “physchem” (setting [5]) and in “physchem” (setting [6]) was above 2000 µg/mL throughout. Also, in series [4] (10° C.), the “Change in purity % (10° C.)” value is given as −1.9%. Besides, the “Change in purity % (37° C.)” value in series [4] (37° C.) is −4.5%.
Consider `CC[C@H](C)[C@H](NC(=O)[C@H](Cc1ccccc1)NC(=O)[C@H](CCC(=O)O)NC(=O)[C@H](CCCCN)NC(=O)[C@H](C)NC(=O)[C@H](C)NC(=O)[C@H](CCCNC(=N)N)NC(=O)[C@H](CCC(=O)O)NC(=O)[C@H](CC(=O)O)NC(=O)[C@H](CC(C)C)NC(=O)[C@H](Cc1ccc(O)cc1)NC(=O)[C@H](CCCCN)NC(=O)[C@H](CO)NC(=O)[C@H](CCCCNC(=O)COCCOCCNC(=O)COCCOCCNC(=O)CC[C@H](NC(=O)CCCCCCCCCCCCCCCCCCC(=O)O)C(=O)O)NC(=O)[C@H](CC(=O)O)NC(=O)[C@H](CO)NC(=O)[C@@H](NC(=O)[C@H](Cc1ccccc1)NC(=O)[C@@H](NC(=O)CNC(=O)[C@H](CCC(N)=O)NC(=O)C(C)(C)NC(=O)[C@@H](N)Cc1c[nH]cn1)[C@@H](C)O)[C@@H](C)O)C(=O)N[C@@H](C)C(=O)N[C@@H](Cc1c[nH]c2ccccc12)C(=O)N[C@@H](CC(C)C)C(=O)N[C@@H](CCC(=O)O)C(=O)N[C@@H](C)C(=O)NCC(=O)NCC(=O)N1CCC[C@H]1C(=O)N[C@@H](CO)C(=O)N[C@@H](CO)C(=O)NCC(N)=O` [Compound 77] (H-H[Aib]QGTFTSDK([AEEA-AEEA-γGlu-C20 diacid])SKYLDERAAKEFIAWLEAGGPSSG-NH2; N-terminus assumed), for which the EC50 at human GLP-1 receptor amounted to 0.291 nM. For the same molecule, the EC50 on GC receptor worked out at 0.076 nM. In series [3], the “Rate of change in food intake (%)” value is reported as −51% and the “Body weight change” value is -2.9 g.
